pIC50: −log10 of the molar value. Entries after “also recorded” stand apart in the source; their conditions may differ.
Tests used:
[1] = test system: hSR-transfected CHO-K1 cells; assay: Agonist cAMP response (HTRF-LANCE cAMP assay); format: cell-based, human; details: for Agonistic response: Table 4, cAMP response at various doses
Procedure: The cAMP responses in hSR-transfected CHO-K1 cells were detected using the HTRF-LANCE® cAMP assay kit. After 48 h of transfection, the cells were detached by nonenzymatic treatment using Versene. The cells were counted and processed according to the manufacturer’s instructions to measure the cAMP response following cell treatment with the secretin analogs. hSCT was used as a positive control. The TRF signals (340 nm excitation/665 nm emission) were detected using a VICTOR X4 spectrofluorometer (PerkinElmer), and the cAMP concentration was determined using a standard curve.
(§1) All in vitro results were analyzed in quadruplicate, and the data are expressed as the means ± SEM. Significant differences were identified using Student’s t-test at p<0.05. The dose response was analyzed using GraphPad Prism 5.0 software with a variable slope (four parameters).

[2] = test system: hSR-transfected CHO-K1 cells; assay: Antagonist cAMP response (coincubation with hSCT, HTRF-LANCE cAMP assay); format: cell-based, human; details: Table 4; cAMP response with 5 nM hSCT plus analog 10^-12 to 10^-6 M, 30 min
Procedure: Detection was subsequently performed according to the manufacturer’s instructions.
as §1

[3] = target: SNAPtag-hSR (human secretin receptor) in transfected CHO-K1 cells (Homo sapiens, UniProt P47872); assay: FRET competitive binding assay
[4] = target: human secretin receptor (human) (UniProt P47872); assay: FRET or BRET; competitive binding, dose response 10^-12 M to 10^-4 M of unlabelled peptide against 500 nM labelled hSCT on CHO-K1 cells with Lumi4-Tb-labelled SNAPtag-hSR, 4–8°C, 1 h; nonspecific signal with 100 μM unlabelled hSCT subtracted; four-parameter fit
human secretin receptor (human), sequence (P47872 23-440): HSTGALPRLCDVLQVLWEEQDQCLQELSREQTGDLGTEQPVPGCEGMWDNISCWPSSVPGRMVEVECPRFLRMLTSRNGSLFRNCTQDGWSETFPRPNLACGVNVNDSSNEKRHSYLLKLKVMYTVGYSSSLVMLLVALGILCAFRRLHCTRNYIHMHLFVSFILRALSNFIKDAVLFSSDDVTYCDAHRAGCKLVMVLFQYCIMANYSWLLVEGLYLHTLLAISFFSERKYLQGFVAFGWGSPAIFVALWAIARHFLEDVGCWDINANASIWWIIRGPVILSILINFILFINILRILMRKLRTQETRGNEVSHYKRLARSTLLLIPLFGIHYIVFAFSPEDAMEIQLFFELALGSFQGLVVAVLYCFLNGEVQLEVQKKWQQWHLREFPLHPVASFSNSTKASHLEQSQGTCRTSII

SNAPtag-hSR (human secretin receptor) in transfected CHO-K1 cells, sequence (P47872 23-440): as above

CC(C)C[C@H](NC(=O)CNC(=O)[C@H](CCC(N)=O)NC(=O)[C@H](CC(C)C)NC(=O)[C@H](CC(C)C)NC(=O)[C@H](CCCNC(=N)N)NC(=O)[C@H](CCC(N)=O)NC(=O)[C@H](CC(C)C)NC(=O)[C@H](CCCNC(=N)N)NC(=O)[C@H](C)NC(=O)[C@H](CO)NC(=O)[C@H](CC(=O)O)NC(=O)[C@H](CCC(N)=O)NC(=O)[C@H](CC(C)C)NC(=O)[C@H](CCCNC(=N)N)NC(=O)[C@H](CO)NC(=O)[C@H](CC(C)C)NC(=O)[C@H](CCC(=O)O)NC(=O)[C@H](CO)NC(=O)[C@@H](NC(=O)[C@H](Cc1ccccc1)NC(=O)[C@@H](NC(=O)CNC(=O)[C@H](CC(=O)O)NC(=O)[C@H](CO)NC(=O)[C@@H](N)Cc1c[nH]cn1)[C@@H](C)O)[C@@H](C)O)C(=O)N[C@H](C(=O)O)C(C)C [Analog 15, Rat SCT]
agonist activity at hSR, cAMP (in words) [1]: agonist
Agonistic response [1]: Present
Antagonistic response [2]: Absent

CC(C)C[C@H](NC(=O)CNC(=O)[C@H](CCC(N)=O)NC(=O)[C@H](CC(C)C)NC(=O)[C@H](CC(C)C)NC(=O)[C@H](CCCNC(=N)N)NC(=O)[C@H](CCC(N)=O)NC(=O)[C@H](CC(C)C)NC(=O)[C@H](CCCNC(=N)N)NC(=O)[C@H](C)NC(=O)CNC(=O)[C@H](CCC(=O)O)NC(=O)[C@H](CCCNC(=N)N)NC(=O)[C@H](CC(C)C)NC(=O)[C@H](CCCNC(=N)N)NC(=O)[C@H](CO)NC(=O)[C@H](CC(C)C)NC(=O)[C@H](CCC(=O)O)NC(=O)[C@H](CO)NC(=O)[C@@H](NC(=O)[C@H](Cc1ccccc1)NC(=O)[C@@H](NC(=O)CNC(=O)[C@H](CC(=O)O)NC(=O)[C@H](CO)NC(=O)[C@@H](N)Cc1c[nH]cn1)[C@@H](C)O)[C@@H](C)O)C(=O)N[C@H](C(=O)O)C(C)C [hSCT, human secretin, reference compound]
Agonistic response [1]: Present
Antagonistic response [2]: Absent

H2N-Ala-Ser-Asp-Gly-Thr-Phe-Thr-Ser-Glu-Leu-Ser-Arg-Leu-Arg-Glu-Gly-Ala-Arg-Leu-Gln-Arg-Leu-Leu-Gln-Gly-Leu-Val- COOH [Analog 2, h[Ala^1]SCT]
Agonistic response [1]: Absent
Antagonistic response [2]: Absent

H2N-Arg-Glu-Gly-Ala-Arg-Leu-Gln-Arg-Leu-Leu-Gln-Gly-Leu-Val- COOH [Analog 20, Ct-SCT]
Agonistic response [1]: Absent
Antagonistic response [2]: Absent

H2N-Cit-Ser-Asp-Gly-Thr-Phe-Thr-Ser-Glu-Leu-Ser-Arg-Leu-Arg-Glu-Gly-Ala-Arg-Leu-Gln-Arg-Leu-Leu-Gln-Gly-Leu-Val- COOH [Analog 10, h[Cit^1]SCT]
Agonistic response [1]: Absent
Antagonistic response [2]: Absent

H2N-His-Pro-Asp-Gly-Thr-Phe-Thr-Ser-Glu-Leu-Ser-Arg-Leu-Arg-Glu-Gly-Ala-Arg-Leu-Gln-Arg-Leu-Leu-Gln-Gly-Leu-Val- COOH [Analog 1, h[Pro^2]SCT]
Agonistic response [1]: Absent
Antagonistic response [2]: Absent

H2N-His-Ser-Asp-Cha-Thr-Phe-Thr-Ser-Glu-Leu-Ser-Arg-Leu-Arg-Glu-Gly-Ala-Arg-Leu-Gln-Arg-Leu-Leu-Gln-Gly-Leu-Val- COOH [Analog 7, h[Cha^4]SCT]
Agonistic response [1]: Absent
Antagonistic response [2]: Absent

H2N-His-Ser-Asp-D-allyl,Gly-Thr-Phe-Thr-Ser-Glu-Leu-Ser-Arg-Leu-Arg-Glu-Gly-Ala-Arg-Leu-Gln-Arg-Leu-Leu-Gln-Gly-Leu-Val- COOH [Analog 5, h[(D-allyl,Gly^4]SCT]
Agonistic response [1]: Absent
Antagonistic response [2]: Absent

H2N-His-Ser-Asp-Gly-Leu-Phe-Thr-Ser-Glu-Tyr-Ser-Lys-Met-Arg-Gly-Asn-Ala-Gln-Val-Gln-Lys-Phe-Ile-Gln-Asn-Leu-Met- COOH [Analog 17, Chicken SCT]
Agonistic response [1]: Absent
Antagonistic response [2]: Absent

H2N-His-Ser-Asp-Gly-Thr-Phe-Thr-Ser-Glu-Leu-Ser-Arg-Leu- COOH [Analog 19, Nt-SCT]
Agonistic response [1]: Absent
Antagonistic response [2]: Absent

H2N-His-Ser-Asp-Pro-Thr-Phe-Thr-Ser-Glu-Leu-Ser-Arg-Leu-Arg-Glu-Gly-Ala-Arg-Leu-Gln-Arg-Leu-Leu-Gln-Gly-Leu-Val- COOH [Analog 13, h[Pro^4]SCT]
Agonistic response [1]: Absent
Antagonistic response [2]: Absent

H2N-His-Ser-Asp-Tyr-Thr-Phe-Thr-Ser-Glu-Leu-Ser-Arg-Leu-Arg-Glu-Gly-Ala-Arg-Leu-Gln-Arg-Leu-Leu-Gln-Gly-Leu-Val- COOH [Analog 14, h[Tyr^4]SCT]
Agonistic response [1]: Absent
Antagonistic response [2]: Absent

H2N-His-Ser-Asp-p-Cl,D-Phe^4-Thr-Phe-Thr-Ser-Glu-Leu-Ser-Arg-Leu-Arg-Glu-Gly-Ala-Arg-Leu-Gln-Arg-Leu-Leu-Gln-Gly-Leu-Val- COOH [Analog 4, h[(p-Cl,D-Phe^4]SCT]
Agonistic response [1]: Absent
Antagonistic response [2]: Absent

H2N-His-Ser-D-Asp-Gly-Thr-Phe-Thr-Ser-Glu-Leu-Ser-Arg-Leu-Arg-Glu-Gly-Ala-Arg-Leu-Gln-Arg-Leu-Leu-Gln-Gly-Leu-Val- COOH [Analog 8, h[D-Asp^3]SCT]
Agonistic response [1]: Absent
Antagonistic response [2]: Absent

H2N-His-Ser-pCO2HPhe-Gly-Thr-Phe-Thr-Ser-Glu-Leu-Ser-Arg-Leu-Arg-Glu-Gly-Ala-Arg-Leu-Gln-Arg-Leu-Leu-Gln-Gly-Leu-Val- COOH [Analog 11, h[pCO2H-Phe^3]SCT]
Agonistic response [1]: Absent
Antagonistic response [2]: Absent

H2N-His-Val-Asp-Gly-Arg-Phe-Thr-Ser-Glu-Phe-Ser-Arg-Ala-Arg-Gly-Ser-Ala-Ala-Ile-Arg-Lys-Ile-Ile-Asn-Ser-Ala-Leu-Ala- COOH [Analog 16, Xenopus SCT]
Agonistic response [1]: Absent
Antagonistic response [2]: Absent

H2N-His-Val-Asp-Gly-Leu-Phe-Thr-Ser-Glu-Leu-Ser-Lys-Leu-Arg-Gly-Ser-Ala-Val-Ala-Arg-Ser-Phe-Thr-Asn-Ala-Val-Leu- COOH [Analog 18, Coelacanths SCT]
Agonistic response [1]: Absent
Antagonistic response [2]: Absent

H2N-Leu-Ser-Asp-Gly-Thr-Phe-Thr-Ser-Glu-Leu-Ser-Arg-Leu-Arg-Glu-Gly-Ala-Arg-Leu-Gln-Arg-Leu-Leu-Gln-Gly-Leu-Val- COOH [Analog 3, h[Leu^1]SCT]
Agonistic response [1]: Absent
Antagonistic response [2]: Absent

H2N-Orn-Ser-Asp-Gly-Thr-Phe-Thr-Ser-Glu-Leu-Ser-Arg-Leu-Arg-Glu-Gly-Ala-Arg-Leu-Gln-Arg-Leu-Leu-Gln-Gly-Leu-Val- COOH [Analog 12, h[Orn^1]SCT]
Agonistic response [1]: Absent
Antagonistic response [2]: Absent

H2N-Phe-Thr-Ser-Glu-Leu-Ser-Arg-Leu-Arg-Glu-Gly-Ala-Arg-Leu-Gln-Arg-Leu-Leu-Gln-Gly-Leu-Val- COOH [Analog 6, hSCT(6–27)]
Agonistic response [1]: Absent
Antagonistic response [2]: Absent

H2N-Tic-Ser-Asp-Gly-Thr-Phe-Thr-Ser-Glu-Leu-Ser-Arg-Leu-Arg-Glu-Gly-Ala-Arg-Leu-Gln-Arg-Leu-Leu-Gln-Gly-Leu-Val- COOH [Analog 9, h[Tic^1]SCT]
Agonistic response [1]: Absent
Antagonistic response [2]: Absent

human pituitary adenylate cyclase-activating polypeptide [hPACAP, reference compound]
in vitro binding to hSR (in words) [3]: only at high concentrations
agonist activity at hSR, cAMP (in words) [1]: could also activate hSR to produce cAMP; also recorded: only at high concentrations

human secretin (peptide)
pIC50 [4]: 8.79

human vasoactive peptide [hVIP, reference compound]
agonist activity at hSR, cAMP (in words) [1]: could also activate hSR to produce cAMP; also recorded: only at high concentrations

Reference: paper PMC4773067 (PLoS ONE, 2016)
